Results from patent US8952024B2, “Herbicidal pyrimidone derivatives” (E I du Pont de Nemours and Company, priority 2009, dated 2015).

Assays:
Test in all cases: Test B pre-/postemergence plant response
Format in all cases: in vivo
[1] = test system: bermudagrass (Cynodon dactylon)
Summary of the method: (§1)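 Visually scored on a 0 to 100 scale after 13 to 15 days in greenhouse versus controls. Treatments were preemergence on seeded loam/sand soil and postemergence on 1- to 4-leaf plants.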

[2] = test system: goosegrass (Eleusine indica)
Summary of the method: as §1

[3] = test system: green foxtail (Setaria viridis)
Summary of the method: as §1

[4] = test system: johnsongrass (Sorghum halepense)
Summary of the method: as §1

kochia (Kochia scoparia) = details: Postemergence
Summary of the method: as §1

[5] = test system: lambsquarters (Chenopodium album)
Summary of the method: as §1

[6] = test system: large crabgrass (Digitaria sanguinalis)
Summary of the method: as §1

[7] = test system: ragweed (common ragweed, Ambrosia elatior)
Summary of the method: as §1

soybean (Glycine max) = test system: soybean (Glycine max)
Summary of the method: as §1

[8] = test system: velvetleaf (Abutilon theophrasti)
Summary of the method: as §1

[9] = test system: wheat (Triticum aestivum)
Summary of the method: as §1

[10] = test system: woolly cupgrass (Eriochloa villosa)
Summary of the method: as §1

[11] = test system: yellow nutsedge (Cyperus esculentus)
Summary of the method: as §1

[12] = Postemergence, 31 g ai/ha, 0 to 100 scale (0 no effect, 100 complete control)
[13] = Postemergence, 62 g ai/ha, scale 0 to 100 (0 no effect, 100 complete control)
[14] = Postemergence, 125 g ai/ha, scale 0 (no effect) to 100 (complete control), 13 to 15 days
[15] = Postemergence, 250 g ai/ha, scale 0 to 100 (0 no effect, 100 complete control), 13 to 15 days
[16] = Preemergence, 31 g ai/ha, scale 0 to 100 (0 no effect, 100 complete control)
[17] = Preemergence, 62 g ai/ha, scale 0 to 100 (0 no effect, 100 complete control)
[18] = Preemergence, 125 g ai/ha, scale 0 to 100, 0 no effect, 100 complete control
[19] = Preemergence, 250 g ai/ha, 0 to 100 scale
[20] = 31 g ai/ha, 0 to 100 scale (0 no effect, 100 complete control)
[21] = 62 g ai/ha, scale 0 to 100 (0 no effect, 100 complete control)
[22] = 125 g ai/ha, scale 0 (no effect) to 100 (complete control), 13 to 15 days
[23] = 250 g ai/ha, scale 0 to 100 (0 no effect, 100 complete control), 13 to 15 days
[24] = Postemergence, 125 g ai/ha, scale 0 to 100 (0 no effect, 100 complete control)

CCc1ccccc1-n1c(-c2ccccc2)ncc(C(=O)C2=C(O)CCCC2=O)c1=O [Compound 255]
50: Plant response rating, Ragweed [7, 12] | Plant response rating, Wheat [9, 14]
5: Wheat plant response rating [9, 19]
95: Plant response rating, Bermudagrass [1, 13] | Plant response rating, Bermudagrass [1, 14] | Plant response rating, Goosegrass [2, 14] | Plant response rating, Johnsongrass [4, 15] | Plant response rating, Lambsquarters [5, 13] | Plant response rating, Crabgrass, Large [6, 15] | Plant response rating, Crabgrass, Large [6, 17] | Plant response rating, Ragweed [7, 14] | Plant response rating, Ragweed [7, 15] | Plant response rating, Soybean (soybean (Glycine max); [12]) | Plant response rating, Soybean (soybean (Glycine max); [13]) | Plant response rating, Velvetleaf [8, 12] | Plant response rating, Velvetleaf [8, 17] | Plant response rating, Cupgrass, Woolly [10, 13] | Plant response rating, Cupgrass, Woolly [10, 14]
100: Plant response rating, Bermudagrass [1, 15] | Plant response rating, Bermudagrass [1, 16] | Plant response rating, Bermudagrass [1, 17] | Plant response rating, Bermudagrass [1, 18] | Bermudagrass plant response rating ([1]; Preemergence, 250 g ai/ha, 0 to 100 scale, 0 no effect, 100 complete control) | Plant response rating, Goosegrass [2, 18] | Goosegrass plant response rating [2, 19] | Foxtail, Green plant response rating [3, 19] | Plant response rating, Lambsquarters [5, 15] | Plant response rating, Lambsquarters [5, 17] | Plant response rating, Lambsquarters [5, 18] | Lambsquarters plant response rating [5, 19] | Plant response rating, Crabgrass, Large [6, 18] | Crabgrass, Large plant response rating [6, 19] | Ragweed plant response rating [7, 19] | Plant response rating, Soybean (soybean (Glycine max); [14]) | Plant response rating, Soybean (soybean (Glycine max); [15]) | Plant response rating, Velvetleaf [8, 15] | Velvetleaf plant response rating [8, 19]
65: Plant response rating, Kochia (kochia (Kochia scoparia); [23]) | Plant response rating, Ragweed [7, 16]
40: Plant response rating, Wheat [9, 13] | Plant response rating, Nutsedge, Yellow [11, 18]
15: Plant response rating, Kochia (kochia (Kochia scoparia); [21]) | Plant response rating, Kochia (kochia (Kochia scoparia); [22]) | Plant response rating, Soybean (soybean (Glycine max); [18]) | Plant response rating, Nutsedge, Yellow [11, 13] | Plant response rating, Nutsedge, Yellow [11, 14]
10: Plant response rating, Kochia (kochia (Kochia scoparia); [20]) | Plant response rating, Cupgrass, Woolly [10, 17] | Plant response rating, Nutsedge, Yellow [11, 12] | Plant response rating, Nutsedge, Yellow [11, 16]
80: Plant response rating, Goosegrass [2, 16] | Plant response rating, Foxtail, Green [3, 17] | Plant response rating, Foxtail, Green [3, 18] | Plant response rating, Johnsongrass [4, 12] | Plant response rating, Crabgrass, Large [6, 16] | Soybean plant response rating (soybean (Glycine max); [19]) | Plant response rating, Velvetleaf [8, 16] | Plant response rating, Wheat [9, 15]
90: Plant response rating, Bermudagrass [1, 12] | Plant response rating, Goosegrass [2, 12] | Plant response rating, Goosegrass [2, 13] | Plant response rating, Foxtail, Green [3, 13] | Plant response rating, Foxtail, Green [3, 14] | Plant response rating, Foxtail, Green [3, 15] | Plant response rating, Johnsongrass [4, 14] | Plant response rating, Lambsquarters [5, 12] | Plant response rating, Crabgrass, Large [6, 14] | Plant response rating, Ragweed [7, 13] | Cupgrass, Woolly plant response rating [10, 19] | Nutsedge, Yellow plant response rating [11, 19]
75: Plant response rating, Johnsongrass [4, 18] | Plant response rating, Ragweed [7, 17] | Plant response rating, Cupgrass, Woolly [10, 18]
0: Plant response rating, Foxtail, Green [3, 16] | Plant response rating, Johnsongrass [4, 16] | Plant response rating, Soybean (soybean (Glycine max); [16]) | Plant response rating, Soybean (soybean (Glycine max); [17]) | Plant response rating, Wheat [9, 16] | Plant response rating, Wheat [9, 17] | Plant response rating, Wheat [9, 18] | Plant response rating, Cupgrass, Woolly [10, 16]
85: Plant response rating, Foxtail, Green [3, 12] | Plant response rating, Johnsongrass [4, 13] | Plant response rating, Crabgrass, Large [6, 12] | Plant response rating, Crabgrass, Large [6, 13] | Plant response rating, Ragweed [7, 18] | Plant response rating, Cupgrass, Woolly [10, 12]
98: Plant response rating, Goosegrass [2, 15] | Plant response rating, Goosegrass [2, 17] | Johnsongrass plant response rating [4, 19] | Plant response rating, Lambsquarters [5, 14] | Plant response rating, Lambsquarters [5, 16] | Plant response rating, Velvetleaf [8, 13] | Plant response rating, Velvetleaf [8, 14] | Plant response rating, Velvetleaf [8, 18] | Plant response rating, Cupgrass, Woolly [10, 15]
60: Plant response rating, Johnsongrass [4, 17] | Plant response rating, Nutsedge, Yellow [11, 15]
25: Plant response rating, Nutsedge, Yellow [11, 17]
35: Plant response rating, Wheat [9, 12]

CCCCn1c(-c2cccc(F)c2)ncc(C(=O)C2=C(O)C3CCC(C3)C2=O)c1=O (stereo not drawn) [Compound 237]
45: Plant response rating, Nutsedge, Yellow [11, 14] | Plant response rating, Nutsedge, Yellow [11, 15]
90: Plant response rating, Foxtail, Green [3, 13] | Plant response rating, Velvetleaf [8, 13]
50: Plant response rating, Wheat [9, 12]
95: Plant response rating, Goosegrass [2, 12] | Plant response rating, Foxtail, Green [3, 14] | Plant response rating, Foxtail, Green [3, 15] | Plant response rating, Lambsquarters [5, 12] | Plant response rating, Crabgrass, Large [6, 12] | Plant response rating, Ragweed [7, 12] | Plant response rating, Soybean (soybean (Glycine max); [12])
80: Plant response rating, Foxtail, Green [3, 12] | Plant response rating, Kochia (kochia (Kochia scoparia); [21])
85: Plant response rating, Velvetleaf [8, 12] | Plant response rating, Wheat [9, 14] | Plant response rating, Wheat [9, 15]
100: Plant response rating, Bermudagrass [1, 14] | Plant response rating, Bermudagrass [1, 15] | Plant response rating, Johnsongrass [4, 12] | Plant response rating, Johnsongrass [4, 13] | Plant response rating, Johnsongrass [4, 14] | Plant response rating, Johnsongrass [4, 15] | Plant response rating, Kochia (kochia (Kochia scoparia); [22]) | Plant response rating, Kochia (kochia (Kochia scoparia); [23]) | Plant response rating, Lambsquarters [5, 13] | Plant response rating, Lambsquarters [5, 14] | Plant response rating, Lambsquarters [5, 15] | Plant response rating, Crabgrass, Large [6, 14] | Plant response rating, Crabgrass, Large [6, 15] | Plant response rating, Ragweed [7, 14] | Plant response rating, Ragweed [7, 15] | Plant response rating, Soybean (soybean (Glycine max); [13]) | Plant response rating, Soybean (soybean (Glycine max); [14]) | Plant response rating, Soybean (soybean (Glycine max); [15]) | Plant response rating, Velvetleaf [8, 14] | Plant response rating, Velvetleaf [8, 15] | Plant response rating, Cupgrass, Woolly [10, 12] | Plant response rating, Cupgrass, Woolly [10, 13] | Plant response rating, Cupgrass, Woolly [10, 14] | Plant response rating, Cupgrass, Woolly [10, 15]
98: Plant response rating, Bermudagrass [1, 12] | Plant response rating, Bermudagrass [1, 13] | Plant response rating, Goosegrass [2, 13] | Plant response rating, Goosegrass [2, 14] | Plant response rating, Goosegrass [2, 15] | Plant response rating, Crabgrass, Large [6, 13] | Plant response rating, Ragweed [7, 13]
65: Plant response rating, Kochia (kochia (Kochia scoparia); [20])
70: Plant response rating, Wheat [9, 13]
35: Plant response rating, Nutsedge, Yellow [11, 13]
20: Plant response rating, Nutsedge, Yellow [11, 12]

Cc1ccc(F)cc1-n1c(-c2cccc(Cl)c2)ncc(C(=O)C2=C(O)CCCC2=O)c1=O [Compound 157]
100: Plant response rating, Bermudagrass [1, 24] | Plant response rating, Bermudagrass [1, 15] | Plant response rating, Goosegrass [2, 15] | Plant response rating, Johnsongrass [4, 24] | Plant response rating, Johnsongrass [4, 15] | Plant response rating, Lambsquarters [5, 24] | Plant response rating, Lambsquarters [5, 15] | Plant response rating, Crabgrass, Large [6, 15] | Plant response rating, Ragweed [7, 24] | Plant response rating, Ragweed [7, 15] | Plant response rating, Soybean (soybean (Glycine max); [24]) | Plant response rating, Soybean (soybean (Glycine max); [15]) | Plant response rating, Velvetleaf [8, 12] | Plant response rating, Velvetleaf [8, 24] | Plant response rating, Velvetleaf [8, 15]
95: Plant response rating, Foxtail, Green [3, 15] | Plant response rating, Soybean (soybean (Glycine max); [12])
20: Plant response rating, Wheat [9, 24]
98: Plant response rating, Goosegrass [2, 24] | Plant response rating, Lambsquarters [5, 12] | Plant response rating, Crabgrass, Large [6, 24] | Plant response rating, Cupgrass, Woolly [10, 24] | Plant response rating, Cupgrass, Woolly [10, 15]
0: Plant response rating, Kochia (kochia (Kochia scoparia); [20]) | Plant response rating, Wheat [9, 12]
90: Bermudagrass plant response rating (0 to 100 scale) ([1]; 62 g ai/ha, postemergence, 0 is no effect, 100 is complete control, 13 to 15 days) | Plant response rating, Ragweed [7, 12]
75: Plant response rating, Bermudagrass [1, 12]
40: Plant response rating, Nutsedge, Yellow [11, 24]
45: Plant response rating, Kochia (kochia (Kochia scoparia); [23]) | Plant response rating, Nutsedge, Yellow [11, 15]
80: Plant response rating, Crabgrass, Large [6, 12]
30: Plant response rating, Wheat [9, 15] | Plant response rating, Nutsedge, Yellow [11, 12]
70: Plant response rating, Foxtail, Green [3, 12] | Plant response rating, Johnsongrass [4, 12]
10: Plant response rating, Kochia (kochia (Kochia scoparia); 125 g ai/ha, scale 0 to 100 (0 no effect, 100 complete control))
85: Plant response rating, Goosegrass [2, 12] | Plant response rating, Foxtail, Green [3, 24] | Plant response rating, Cupgrass, Woolly [10, 12]
